Results: patent US20080219922A1, “Alzheimer's Disease Imaging Agents” (priority 2005, published 2008)

What was measured:
[1] = Partition coefficient determination (1-octanol/phosphate buffer pH 7.4); type: physicochemical; details: 1-octanol / 0.02 M sodium phosphate buffer pH 7.4
Description: Measurement of distribution coefficient of [^18F]tracer was performed based on the method described by Wilson et al. [Labelled Compd. Radiopharm., 42:1277-1288 (1999)] using 0.02 M sodium phosphate buffer at pH 7.4 and 1-octanol. Basically, the test tubes containing ˜20 μCi of the radiotracer and 2 mL each of 1-octanol and phosphate buffer were vortexed for 10 min at room temperature and then centrifuged for 5 min. Samples (0.5 mL) from 1-octanol and buffer layers were counted in a Packard Cobra II auto-gamma counter (Perkin-Elmer, Downers Grove, Ill.) and decay corrected. The measurement was repeated three times. The log P7.4 value was calculated as follows: log P7.4 log [counts in octanol phase/counts in buffer phase].

[2] = rhesus monkey, in vivo, iv
Description: In order to assess brain uptake and clearance, FZ 202-1 and FZ 202-2 were radiolabeled with fluorine-18. The kinetics of fluorine-18 labeled FZ 202-1 and FZ 202-2 in brain were determined by microPET in rhesus monkeys.
PET study was performed in a male rhesus monkey weighing 6-10 kg using a Concorde MicroPET P4 imaging system. The animal was initially anesthetized with an intramuscular injection of Telazol (3 mg/kg), intubated, and then maintained on a 1% isoflurane/5% oxygen gas mixture throughout the imaging session. The monkey was placed in the PET scanner and the head was immobilized. Blood pressure, heart and respiratory rates, and expired CO2 and oxygen saturation levels were monitored continuously during the PET study. A transmission scan was obtained with a germanium-68 source prior to the PET study for attenuation correction of the emission data. Brain emission scans were performed following the intravenous administration of [^18F]tracer (5 mCi). Serial dynamic transaxial images were acquired for a total of 120 min and then binned for analysis. Emission data acquired were subject to iterative reconstruction (OSEM, two iterations, 40 subsets) with no pre- or postfiltering to provide images with an isotropic resolution of 3 mm fwhm. […]

[3] = target: T1, amyloid plaques in sections from postmortem AD brains (Homo sapiens, UniProt P05067); assay: In vitro film autoradiography of postmortem AD brain sections; type: binding
T1 construct: abundant amyloid plaques or deposits composed of amyloid-β(Aβ) peptides; from tissue; host or cells: postmortem brain tissue sections of frontal lobe from an AD patient
Text: FZ 202-1 in postmortem brain tissue sections of frontal lobe from an AD patient. A: AD tissue+[^18F] FZ 202-1. B: [^18F] […] C: […] [^18F]

T1 sequence (P05067 672-713 limits assumed): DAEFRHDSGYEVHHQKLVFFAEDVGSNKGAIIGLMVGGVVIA

Row | SMILES | Log P7.4 [1] | radioactivity ratios of peak-to-115 min in cerebellum, frontal cortex and subcortical white matter ([2]; male) | bone uptake of radioactivity in the skull [2] | specific binding after pretreatment with nonradioactive PIB and IMPY ([3]; AD specimen, FIG. 3: +1 mM PIB, +10 mM IMPY) | specific binding to amyloid plaques (plaque labeling) ([3]; postmortem AD brain sections, frontal lobe, film autoradiography)
1 | Cc1cc2nc(-c3ccc(N(C)C)cc3)cn2nc1F [FZ 202-1] | 2.69 | – | – | – | –
2 | Cc1cc(F)nn2cc(-c3ccc(N(C)C)cc3)nc12 [FZ 202-2] | 2.83 | – | – | – | –
3 | CN(C)c1ccc(-c2cn3cc([125I])ccc3n2)cc1 [IMPY, reference compound] | 3.58 | – | – | – | –
4 | Cc1cc2nc(-c3ccc(N(C)C)cc3)cn2nc1F [[^18F]-FZ 202-1] | – | 2.5-4.9 | No bone uptake | eliminated | clearly observed in cortical gray matter, but not in the white matter
